Active and inactive are the calls of the source.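 Rule for the calls: active = AC50, the dose giving half-maximal effect, exceeds a fixed cutoff for a compound that rescues yeast growth under heat; inactive = the rest, inconclusive results apart.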
System: S. cerevisiae Burl-1 ts mutant growth, BacTiter-Glo, 38.5C 24 h
Assay: restored growth of temperature-sensitive Burl-1 yeast – whole organism, S. cerevisiae, Burl-1 ts mutant, luminescence, counter-screen for SUMOylation pathway inhibitor project, dose response (AID 463199)

Structure (SMILES) | AC50
CC(C)CC(c1nnnn1C1CCCCC1)N1CCN(C(=O)c2ccco2)CC1 (centres undefined) | > 42 µM (inactive)
O=C(Nc1nccs1)c1ccc(S(=O)(=O)c2ccccc2)cc1 | > 42 µM (inactive)
O=C(c1ccc(COc2ccccc2Cl)o1)N1N=C(C(F)F)CC1(O)C(F)F (centres undefined) | > 42 µM (inactive)
CCCc1nn2c(=O)cc(CSCC(=O)Nc3ccc(OC)cc3)nc2s1 | > 42 µM (inactive)
COC(=O)C1CCN(S(=O)(=O)Cc2ccccc2)CC1 | > 42 µM (inactive)
Fc1ccc(-c2cc(C(F)(F)F)nc(NCc3cccs3)n2)cc1 | > 42 µM (inactive)
CC(c1ccccn1)N(CCN(C)C)C(=S)Nc1cccc(F)c1 (centres undefined) | > 42 µM (inactive)
Oc1ccc(C2=CSC3=NCCN23)cc1O | > 42 µM (inactive)
CCCSc1nc(=O)n2cccc(C)c2n1 | > 42 µM (inactive)
Cc1ccc(C)c(NC(=S)NC(=O)c2cncc(Br)c2)c1 | > 42 µM (inactive)
Cc1cc(C(=O)NNC(=O)c2ccc(C)s2)c(C)o1 | > 42 µM (inactive)
CN1CC2(C)OC(=O)C(Cl)=C2CC1c1ccccc1 (centres undefined) | > 42 µM (inactive)
O=C(CN1CCN(C(=O)c2ccccc2)CC1)Nc1ncc(Br)cc1Br | > 42 µM (inactive)
O=C(Nc1ncccn1)c1ccc(C(F)(F)F)cc1 | > 42 µM (inactive)
CCOc1ccc(N(C(C)C(=O)NC(C)CC)S(C)(=O)=O)cc1 (centres undefined) | > 42 µM (inactive)
CCCCNC(=O)C1C2C=CC3(CN(Cc4ccc(C)cc4)C(=O)C13)O2 (centres undefined) | > 42 µM (inactive)
CCN(C(=O)CCS(=O)(=O)c1ccc2c(c1)oc(=O)n2C)c1ccc(OC)cc1 | > 42 µM (inactive)
CC(C)n1c(O)c(N=Nc2ccccn2)c2ccccc21 | > 42 µM (inactive)
CC1(C)Oc2ccc3ccc(=O)oc3c2/C(=C/Nc2ccc(O)cc2)C1=O | > 42 µM (inactive)
CCOC(=O)Nc1sc(=S)n(C)c1C | > 42 µM (inactive)
CCOc1ccc(N2CC(C(=O)OC)CC2=O)cc1 (centres undefined) | > 42 µM (inactive)
CS(=O)(=O)c1ccc(Cl)c(NC(=O)c2ccc3ccccc3c2)c1 | > 42 µM (inactive)
COC(=O)Oc1ccc(/C=N/NS(=O)(=O)c2ccccc2)cc1OC | > 42 µM (inactive)
CCN1C(=O)N(c2ccc(Cl)cc2)C(C)=CC1(C)C | > 42 µM (inactive)
COc1cc(C(=O)NCCC2=CCCCC2)ccc1OC1CCN(C(C)=O)CC1 | > 42 µM (inactive)

Structure (SMILES) | AC50
Cc1ccc(S(=O)(=O)N(C)c2ccc(OC(=O)CN3C(=O)NC4(CCCC4)C3=O)cc2)cc1C | > 42 µM (inactive)
CN(C(=O)CSc1nnc(-c2cccc(F)c2)n1N)C1CCS(=O)(=O)C1 (centres undefined) | > 42 µM (inactive)
C/C=C/C(=O)OCC(=O)Nc1nc2ccc(C)cc2s1 | > 42 µM (inactive)
O=c1[nH]c(=O)n(C2CCCO2)cc1Br (centres undefined) | > 42 µM (inactive)
COc1ccc(C(=O)NCC(=O)Nc2ccccc2)cc1OC | > 42 µM (inactive)
COc1ccc(-c2csc(NC(=O)CCS(=O)(=O)c3ccccc3)n2)c(OC)c1 | > 42 µM (inactive)
CCN(C(=O)Cn1nc(C)c([N+](=O)[O-])c1C)c1c(N)n(Cc2ccccc2)c(=O)[nH]c1=O | > 42 µM (inactive)
CSCC[C@H](NC(=O)CC(C)(C)C)c1nc2ccccc2[nH]1 | > 42 µM (inactive)
COc1ccc(N2C(=O)CC(NCc3cccs3)C2=O)cc1 (centres undefined) | > 42 µM (inactive)
O=C(N/N=C/c1cccc([N+](=O)[O-])c1)C1COc2ccccc2O1 (centres undefined) | > 42 µM (inactive)
CCN(CC)S(=O)(=O)c1ccc(N2CCCC2)c(C(=O)OCC(=O)Nc2cc(C)on2)c1 | > 42 µM (inactive)
CC(C)c1cc(N2CCOCC2)n2ncc(-c3ccccc3)c2n1 | > 42 µM (inactive)
Cc1ccc(-c2csc(NC(=O)CSc3nc(C)cs3)n2)cc1 | > 42 µM (inactive)
N[C@@H](Cc1ccc(O)c(I)c1)C(=O)O | > 42 µM (inactive)
Cc1c(C(=O)NC(=S)Nc2ccccc2N2CCCC2)cccc1[N+](=O)[O-] | > 42 µM (inactive)
Cc1ccc(S(=O)(=O)N2CCOCC2)cc1NC(=O)COC(=O)CNC(=O)c1ccccc1 | > 42 µM (inactive)
Oc1c(Br)cc(Cl)cc1C=Nc1ccccc1Br | > 42 µM (inactive)
CCN(C(=O)Nc1ccccc1OC)c1c(N)n(Cc2ccccc2)c(=O)[nH]c1=O | > 42 µM (inactive)
Nc1ccc(C2(c3ccc(N)cc3)OC(=O)c3ccccc32)cc1 | > 42 µM (inactive)
CNS(=O)(=O)c1cccc(C(=O)OCC(=O)Nc2ccc(OC)cc2[N+](=O)[O-])c1 | > 42 µM (inactive)
CN(C(=O)CSc1nc(-c2ccccc2)c(-c2ccccc2)o1)C1CCS(=O)(=O)C1 (centres undefined) | > 42 µM (inactive)
O=S(=O)(NCc1ccco1)c1ccc2ccccc2c1 | > 42 µM (inactive)
COC(=O)c1ccccc1SC(CC(=O)c1ccccc1)c1ccc(F)cc1 (centres undefined) | > 42 µM (inactive)
O=C1C2CC=C(Cl)CC2C(=O)N1c1ncn[nH]1 (centres undefined) | > 42 µM (inactive)
COCCn1c(SCC(=O)N2CCCC2)nnc1-c1ccoc1C | > 42 µM (inactive)

Structure (SMILES) | AC50
CN(c1ccccc1)S(=O)(=O)c1ccc(C(=O)NCC2CCCO2)cc1 (centres undefined) | > 21 µM (inactive)
COc1ccc(NC(=O)Nc2ccccc2C(=O)N2CCCC2)cc1 | 1.83 µM
Cn1c(=O)c2c(ncn2CC(=O)N2CCCCCC2)n(C)c1=O | > 42 µM (inactive)
CCOc1ccc2nc(CN3CCN(Cc4ccccc4OCC)C(CCO)C3)ccc2c1 (centres undefined) | > 42 µM (inactive)
O=C(c1ccc(OC2CCN(CCc3ccccc3)CC2)cc1)N1CCCC1 | > 42 µM (inactive)
COc1cccc(N2CCN(C3CCCC(C)C3)CC2)c1 (centres undefined) | > 42 µM (inactive)
COc1ccc(NC(=S)Nc2ccccc2OC)c(OC)c1 | > 42 µM (inactive)
CS(=O)(=O)Nc1ccccc1C(=O)NCCSCc1ccccc1 | > 42 µM (inactive)
CC1CCCC(C)N1CCCNC(=O)c1csc2c1CCCCC2 (centres undefined) | > 42 µM (inactive)
CCc1ccc2nc(-c3cccc(C)c3)nc(SCC(=O)NCC3CCCO3)c2c1 (centres undefined) | > 42 µM (inactive)
COc1cccc(CN(C)C(=O)C2CCC(=O)N(Cc3cccc(F)c3)C2)c1 (centres undefined) | > 42 µM (inactive)
CN(c1ccccc1C(=O)N1CCN(Cc2ccc3c(c2)OCO3)CC1)S(C)(=O)=O | > 42 µM (inactive)
Cc1ccc(-c2ccc(/C=N/n3cnnc3)o2)cc1 | > 42 µM (inactive)
COc1ccc(S(=O)(=O)N2CCCC2CNC(=O)C(=O)NCc2ccccn2)cc1 (centres undefined) | > 42 µM (inactive)
Cc1ccc(NC(=O)NNC(=O)Cn2nc(-c3ccccc3)c(-c3ccccc3)c(C#N)c2=O)cc1 | > 42 µM (inactive)
Cc1cc2c(cc1C)-c1nnc(-c3ccc4ccccc4n3)n1C(C)(C)C2 | > 42 µM (inactive)
O=C(NC1CCCCCC1)C1CCN(S(=O)(=O)c2cccc3cccnc23)CC1 | > 42 µM (inactive)
CCN(C(=O)Cn1c(=O)oc2ccccc21)c1cccc(C)c1 | > 42 µM (inactive)
Cc1cccc(C(=O)NCC(=O)N2CCN(c3ccc(Cl)cc3)CC2)c1 | > 42 µM (inactive)
COc1ccc2c(c1)[C@H]1[C@H](CO2)[C@H](c2ccccc2)[C@]2(C)C(=O)Nc3ccc(C)cc3C(=O)N12 | > 42 µM (inactive)
O=C(NNS(=O)(=O)c1c(F)cc(F)c(Cl)c1F)C12CC3CC(CC(C3)C1)C2 | > 42 µM (inactive)
O=C(COC(=O)c1cc([N+](=O)[O-])ccc1N1CCOCC1)Nc1cccc(F)c1 | > 42 µM (inactive)
O=S(=O)(Nc1ccc(N2CCOCC2)cc1)c1cccs1 | > 42 µM (inactive)
CCn1cc(C(=O)N(C)c2ccc(OC)cc2OC)c2cc(OC)c(OC)cc2c1=O | > 42 µM (inactive)
CC(=O)N1c2ccc([N+](=O)[O-])cc2NC(=O)CC1C (centres undefined) | > 42 µM (inactive)

Structure (SMILES) | AC50
Cc1ccc(NC(=O)Nc2cccc(C(F)(F)F)c2)nc1 | > 42 µM (inactive)
CCCC(=O)N(CCN1CCOCC1)c1nc2ccc(OCC)cc2s1 | > 42 µM (inactive)
COc1ccccc1CNC(=O)CN(c1ccc(C)cc1)S(=O)(=O)c1c(C)n[nH]c1C | > 42 µM (inactive)
COc1cccc(/C=N/NC(=O)CCn2cnc3ccccc32)c1 | > 42 µM (inactive)
COc1ccc(S(=O)(=O)N2CCc3cc4c(cc3C2C)OCCCO4)cc1 (centres undefined) | > 42 µM (inactive)
CN(CC(=O)N1CCc2[nH]c3ccc(F)cc3c2C1)CC1OCCO1 | > 42 µM (inactive)
CCCCC(O)(CCCC)C(=O)NN(C(=O)OC)c1ccc(C)cc1 | > 42 µM (inactive)
COc1ccccc1CNc1nc(SC)ncc1CO | > 42 µM (inactive)
CCC12CN3CCN(CC(C3)/C1=N/NC(=O)c1ccncc1)C2 | > 42 µM (inactive)
CC(C)C(=O)NCCSc1c[nH]c2ccccc12 | > 42 µM (inactive)
COc1cc(C(=O)OCC(=O)NCc2ccccc2)cc(NC(=O)c2ccco2)c1OC | > 42 µM (inactive)
CCOC(=O)N1CCC(Nc2nc3ccccc3n3nnnc23)CC1 | > 42 µM (inactive)
COc1cc(/C=N/NC2=NS(=O)(=O)c3ccccc32)cc(OC)c1OC | > 42 µM (inactive)
Cc1cc(/C=N/NC(=O)c2ccsc2)c(C)n1-c1cnccn1 | > 42 µM (inactive)
CCOC(=O)C1CCCN(C(=O)c2cc(-c3ccc(F)cc3)nc3ccccc23)C1 (centres undefined) | > 42 µM (inactive)
CN(Cc1ccc(C(C)(C)C)cc1)C(=O)c1ccc2c(=O)n3c(nc2c1)CCC3 | > 42 µM (inactive)
COC(=O)c1cn(C(=O)c2cccc3ccccc23)c2ccccc12 | > 42 µM (inactive)
CSc1ccc(CN2CCN(S(=O)(=O)Cc3ccccc3)CC2)cc1 | > 42 µM (inactive)
O=C(/C=C/c1ccc(F)cc1)NCC1(c2ccccc2)CCOCC1 | > 42 µM (inactive)
O=C(Nc1cccc(O)c1)C(Cc1ccccc1)N1C(=O)c2cccc3cccc(c23)C1=O (centres undefined) | > 42 µM (inactive)
O=C(CSc1nc2ncccc2[nH]1)NC1CCCCC1 | > 42 µM (inactive)
COC(=O)C1CN(C(=O)C(C)Oc2ccc(F)cc2)c2ccccc2O1 (centres undefined) | > 42 µM (inactive)
COCC(=O)Nc1c(C(=O)Nc2ccc3c(c2)OCO3)oc2ccccc12 | > 42 µM (inactive)
COCCn1c(-c2ccc(Cl)cc2)cnc1SCC(=O)NCCc1ccc(OC)c(OC)c1 | > 42 µM (inactive)

Reference: PubChem BioAssay AID463199 (Broad Institute, 2010)
